Experimental data reported in US20240217978A1 (CHONG KUN DANG PHARMACEUTICAL CORP., priority 2021, published 2024).

biological target: human adenosine A2a receptor (Homo sapiens (Human), UniProt P29274); assay: A2a receptor binding affinity, [3H]-NECA radioligand binding test; settings: [3H]-NECA 37 nM; membrane from HEK-293 cells transfected with human adenosine A2a receptor
Outline: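 IC50 values (μM) come from displacement of [3H]-NECA, used at 37 nM final, on human A2a receptor membranes from transfected HEK-293 cells. Incubation lasted one hour at room temperature in Tris/MgCl2/EDTA buffer, pH 7.4; filter-bound radioactivity was counted by scintillation.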

human adenosine A2a receptor, sequence (P29274 whole entry): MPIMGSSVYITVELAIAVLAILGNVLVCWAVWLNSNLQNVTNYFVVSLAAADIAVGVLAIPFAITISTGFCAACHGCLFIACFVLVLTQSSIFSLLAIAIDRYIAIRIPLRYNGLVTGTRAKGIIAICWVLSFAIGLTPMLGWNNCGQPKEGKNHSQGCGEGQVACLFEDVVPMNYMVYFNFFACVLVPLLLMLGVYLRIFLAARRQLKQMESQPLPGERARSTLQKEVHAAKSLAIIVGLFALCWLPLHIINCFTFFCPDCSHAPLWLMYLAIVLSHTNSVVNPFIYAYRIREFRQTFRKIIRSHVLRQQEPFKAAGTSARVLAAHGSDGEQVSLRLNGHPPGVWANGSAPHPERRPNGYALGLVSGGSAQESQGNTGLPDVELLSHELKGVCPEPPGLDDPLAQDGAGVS

| SMILES | IC50 [nM] |
| --- | --- |
| Nc1nc(N2CC[C@H]2C(=O)N2CCN(CC(F)F)CC2)nc2nc(-c3ccco3)nn12 [Example 252, (S)-(1-(7-amino-2-(furan-2-yl)-[1,2,4]triazolo[1,5-a][1,3,5]triazin-5-yl)azetidin-2-yl)(4-(2,2-difluoroethyl)piperazin-1-yl)methanone] | 6 |
| CCC[C@H](Nc1nc(N)n2nc(-c3ccco3)nc2n1)C(=O)N1CCN(CC(F)(F)F)CC1 [Example 212, (S)-2-((7-amino-2-(furan-2-yl)-[1,2,4]triazolo[1,5-a][1,3,5]triazin-5-yl)amino)-1-(4-(2,2,2-trifluoroethyl)piperazin-1-yl)pentan-1-one] | 12 |
| Nc1nc(N2CCC[C@H]2C(=O)N2CCN(C(=O)c3cscn3)CC2)nc2nc(-c3ccco3)nn12 [Example 105] | 3 |
| CCC1CCC(N2CCN(C(=O)[C@@H]3CCCN3c3nc(N)n4nc(-c5ccco5)nc4n3)CC2)CC1 (stereo partly drawn) [Example 152, (S)-(1-(7-amino-2-(furan-2-yl)-[1,2,4]triazolo[1,5-a][1,3,5]triazin-5-yl)pyrrolidin-2-yl)(4-(4-ethylcyclohexyl)piperazin-1-yl) methanone] | 19 |
| CN1CCN(C(=O)[C@@H]2CCCN2c2nc(N)n3nc(-c4ccco4)nc3n2)CC1 [Example 134, (S)-(1-(7-amino-2-(furan-2-yl)-[1,2,4]triazolo[1,5-a][1,3,5]triazin-5-yl)pyrrolidin-2-yl)(4-methylpiperazin-1-yl)methanone] | 86 |
| CC(C)(F)CN1CCC(C2CCN(C(=O)[C@@H]3CCCN3c3nc(N)n4nc(-c5ccco5)nc4n3)CC2)CC1 [Example 245, (S)-(1-(7-amino-2-(furan-2-yl)-[1,2,4]triazolo[1,5-a][1,3,5]triazin-5-yl)pyrrolidin-2-yl)(1′-(2-fluoro-2-methylpropyl)-[4,4′-bipiperidin]-1-yl)methanone] | 15 |
| Nc1nc(N2CCC[C@H]2C(=O)N2CC(Cc3ccccc3)C2)nc2nc(-c3ccco3)nn12 [Example 113, (S)-(1-(7-amino-2-(furan-2-yl)-[1,2,4]triazolo[1,5-a][1,3,5]triazin-5-yl)pyrrolidin-2-yl)(3-benzylazetidin-1-yl)methanone] | 9 |
| CCc1cccc(NC(=O)C2CCN(C(=O)[C@@H]3CCCN3c3nc(N)n4nc(-c5ccco5)nc4n3)CC2)c1 [Example 131, 1-((7-amino-2-(furan-2-yl)-[1,2,4]triazolo[1,5-a][1,3,5]triazin-5-yl)-L-prolyl)-N-(3-ethylphenyl)piperidin-4-carboxamide] | 4 |
| C[C@H](Nc1nc(N)n2nc(-c3ccco3)nc2n1)C(=O)N1CCN(CC(C)(F)F)CC1 [Example 317, (S)-2-((7-amino-2-(furan-2-yl)-[1,2,4]triazolo[1,5-a][1,3,5]triazin-5-yl)amino)-1-(4-(2,2-difluoropropyl)piperazin-1-yl)propan-1-one] | 13 |
| Nc1nc(N2CCC[C@H]2C(=O)N2CCN(CC(F)(F)C(F)F)CC2)nc2nc(-c3ccco3)nn12 [Example 226, (S)-(1-(7-amino-2-(furan-2-yl)-[1,2,4]triazolo[1,5-a][1,3,5]triazin-5-yl)pyrrolidin-2-yl)(4-(2,2,3,3-tetrafluoropropyl)piperazin-1-yl)methanone] | 7 |
| Nc1nc(N[C@@H](CN2CCCCC2)C(=O)N2CCN(c3ccc(F)cc3F)CC2)nc2nc(-c3ccco3)nn12 [Example 272, (S)-2-((7-amino-2-(furan-2-yl)-[1,2,4]triazolo[1,5-a][1,3,5]triazin-5-yl)amino)-1-(4-(2,4-difluorophenyl)piperazin-1-yl)-3-(piperidin-1-yl)propan-1-one] | 15 |
| C[C@@H]1CN(CC(F)(F)F)CCN1C(=O)[C@@H]1CCCN1c1nc(N)n2nc(-c3ccco3)nc2n1 [Example 205, ((S)-1-(7-amino-2-(furan-2-yl)-[1,2,4]triazolo[1,5-a][1,3,5]triazin-5-yl)pyrrolidin-2-yl)((R)-2-methyl-4-(2,2,2-trifluoroethyl)piperazin-1-yl)methanone] | 7 |
| Nc1nc(N2CCC[C@H]2C(=O)N2CCN(CCCC(F)(F)F)CC2)nc2nc(-c3ccco3)nn12 [Example 239, (S)-(1-(7-amino-2-(furan-2-yl)-[1,2,4]triazolo[1,5-a][1,3,5]triazin-5-yl)pyrrolidin-2-yl)(4-(4,4,4-trifluorobutyl)piperazin-1-yl) methanone] | 6 |
| Nc1nc(N2CCC[C@H]2C(=O)N2CC3(CN(CC(F)(F)F)C3)C2)nc2nc(-c3ccco3)nn12 [Example 345, (S)-(1-(7-amino-2-(furan-2-yl)-[1,2,4]triazolo[1,5-a][1,3,5]triazin-5-yl)pyrrolidin-2-yl)(6-(2,2,2-trifluoroethyl)-2,6-diazaspiro[3.3]heptan-2-yl)methanone] | 13 |
| Nc1nc(N[C@@H](CO)C(=O)N2CCN(CC(F)(F)F)CC2)nc2nc(-c3ccco3)nn12 [Example 231, (S)-2-((7-amino-2-(furan-2-yl)-[1,2,4]triazolo[1,5-a][1,3,5]triazin-5-yl)amino)-3-hydroxy-1-(4-(2,2,2-trifluoroethyl)piperazin-1-yl)propan-1-one] | 5 |
| Cc1ccc(-c2nc3nc(N4CC[C@H]4C(=O)N4CCN(Cc5ccccc5)CC4)nc(N)n3n2)o1 [Example 218, (S)-(1-(7-amino-2-(5-methylfuran-2-yl)-[1,2,4]triazolo[1,5-a][1,3,5]triazin-5-yl)azetidin-2-yl)(4-benzylpiperazin-1-yl)methanone] | 10 |
| COCCN1CCC(C2CCN(C(=O)[C@@H]3CCN3c3nc(N)n4nc(-c5ccco5)nc4n3)CC2)CC1 [Example 329, (S)-(1-(7-amino-2-(furan-2-yl)-[1,2,4]triazolo[1,5-a][1,3,5]triazin-5-yl)azetidin-2-yl)(1′-(2-methoxyethyl)-[4,4′-bipiperidin]-1-yl)methanone] | 26 |
| Nc1nc(N2CCC[C@H]2C(=O)N2CCN(c3ncccc3C(F)(F)F)CC2)nc2nc(-c3ccco3)nn12 [Example 124, (S)-(1-(7-amino-2-(furan-2-yl)-[1,2,4]triazolo[1,5-a][1,3,5]triazin-5-yl)pyrrolidin-2-yl)(4-(3-(trifluoromethyl)pyridin-2-yl)piperazin-1-yl)methanone] | 2 |
| Nc1nc(N2CCC[C@H]2C(=O)N2CCN(CC(F)F)CC2)nc2oc(-c3ccco3)nc12 [Example 269, (S)-(1-(7-amino-2-(furan-2-yl)oxazolo[5,4-d]pyrimidin-5-yl)pyrrolidin-2-yl)(4-(2,2-difluoroethyl)piperazin-1-yl)methanone] | 39 |
| CC(C)(C)C1CCC(N2CCN(C(=O)[C@@H]3CCCN3c3nc(N)n4nc(-c5ccco5)nc4n3)CC2)CC1 (stereo partly drawn) [Example 154, (S)-(1-(7-amino-2-(furan-2-yl)-[1,2,4]triazolo[1,5-a][1,3,5]triazin-5-yl)pyrrolidin-2-yl)(4-(4-(tert-butyl)cyclohexyl)piperazin-1-yl)methanone] | 10 |
| Nc1nc(N2CCC[C@H]2C(=O)N2CCN(CC(F)(F)F)CC2)nc2sc(-c3ccco3)nc12 [Example 238, (S)-(1-(7-amino-2-(furan-2-yl)thiazolo[5,4-d]pyrimidin-5-yl)pyrrolidin-2-yl)(4-(2,2,2-trifluoroethyl)piperazin-1-yl)methanone] | 3 |
| Nc1nc(N2CCC[C@H]2C(=O)N2C3CCC2CN(C(=O)Nc2ccccc2)C3)nc2nc(-c3ccco3)nn12 [Example 180, 8-((7-amino-2-(furan-2-yl)-[1,2,4]triazolo[1,5-a][1,3,5]triazin-5-yl)-L-prolyl)-N-phenyl-3,8-diazabicyclo[3.2.1]octane-3-carboxamide] | 7 |
| CC1CN(C(=O)[C@H](C)Nc2nc(N)n3nc(-c4ccco4)nc3n2)CC(C)N1C(=O)N1CCOCC1 (stereo partly drawn) [Example 129, (2S)-2-((7-amino-2-(furan-2-yl)-[1,2,4]triazolo[1,5-a][1,3,5]triazin-5-yl)amino)-1-(3,5-dimethyl-4-(morpholine-4-carbonyl)piperazin-1-yl)propan-1-one] | 10 |
| Nc1nc(N2CCC[C@H]2C(=O)N2CCC(C3CCN(CC(F)F)CC3)CC2)nc2nc(-c3ccco3)nn12 [Example 287, (S)-(1-(7-amino-2-(furan-2-yl)-[1,2,4]triazolo[1,5-a][1,3,5]triazin-5-yl)pyrrolidin-2-yl)(1′-(2,2-difluoroethyl)-[4,4′-bipiperidin]-1-yl)methanone] | 3 |
| C[C@@H]1CN(CC(C)(C)F)CCN1C(=O)[C@@H]1CCCN1c1nc(N)n2nc(-c3ccco3)nc2n1 [Example 374, ((S)-1-(7-amino-2-(furan-2-yl)-[1,2,4]triazolo[1,5-a][1,3,5]triazin-5-yl)pyrrolidin-2-yl)((R)-4-(2-fluoro-2-methylpropyl)-2-methylpiperazin-1-yl) methanone] | 0.8 |
| Cc1ccc(-c2nc3nc(N4CCC[C@H]4C(=O)N4CCN(c5nccs5)CC4)nc(N)n3n2)o1 [Example 202, 2-(4-((7-amino-2-(5-methylfuran-2-yl)-[1,2,4]triazolo[1,5-a][1,3,5]triazin-5-yl)-L-prolyl)piperazin-1-yl)thiazole] | 7 |
| Cc1ccc(-c2nc3nc(N4CCC[C@H]4C(=O)N4CCN(CC(C)(C)F)CC4)nc(N)n3n2)o1 [Example 90, (S)-(1-(7-amino-2-(5-methylfuran-2-yl)-[1,2,4]triazolo[1,5-a][1,3,5]triazin-5-yl)pyrrolidin-2-yl)(4-(2-fluoro-2-methylpropyl)piperazin-1-yl)methanone] | 8 |
| Nc1nc(N[C@H](C(=O)N2CCN(CC(F)(F)F)CC2)C2CCCCC2)nc2nc(-c3ccco3)nn12 [Example 148, (S)-2-((7-amino-2-(furan-2-yl)-[1,2,4]triazolo[1,5-a][1,3,5]triazin-5-yl)amino)-2-cyclohexyl-1-(4-(2,2,2-trifluoroethyl)piperazin-1-yl)ethan-1-one] | 8 |
